Here are results for 1 compound from US9725490B2, “ERAP1-derived peptide and use thereof” (TOKUSHIMA UNIVERSITY, priority 2011, dated 2017).

Common to all, as to assay type: cell-based, human
One test concerns HCC1395 cells. The test can be described thus: Proliferation of ERα-positive/ERAP1-negative HCC1395 cells. The note with it: 10 nM E2 96 hours. The protocol: FIG. 21 is a diagram illustrating that […] was translocated into the nucleus by E2 stimulation in ERAP1-negative breast cancer cell lines, HCC1395 cells. […] Then, immediately, the cells were stimulated with 1 μM E2 for 24 hours. The cells were fractionated into cytoplasm and nuclear fractions by specific gravity centrifugation. Then, each fraction was subjected to immunoblotting analysis using an anti-PHB2 antibody. Lamin and Tubulin are markers for […]. […] HCC1395 cells were treated with 5 μM ERAP1-peptide. Then, immediately, the cells were stimulated with 1 μM E2 for 24 hours. Then, the nuclear fraction was immunoprecipitated with anti-ERα antibody. Furthermore, with respect to the obtained sample, the immunoprecipitate was subjected to immunoblotting analysis with the antibodies shown in the figure. […] Then, immediately the cells were stimulated with 10 nM E2 for 96 hours.
The proliferation assay of HCC1395 cells was evaluated using Cell-Counting Kit-8 (CCK-8, Dojindo, Kumamoto, Japan). First, HCC1395 cells were seeded in 2×10^4/well in RPMI culture medium containing 10% FBS and 1% antibiotic/antimycotic solution and not containing phenol red on a 48-well plate, and stood in a CO2 incubator. […] Then, 100 μl from each well was moved to a 96-well plate, and the absorbance at 450 nm was measured with a microplate reader.

Another test relates to ZR75-1 cells. The test can be described thus: E2-independent cell proliferation, ZR-75-1. The settings on record: 10 μM every 24 hours, at 96 hours. The protocol:
FIG. 16 is a diagram illustrating the influence of the ERAP1-peptide on proliferation of E2-independent breast cancer cells. […] Each of the cells was treated with 10 μM ERAP1-peptide for 24 hours (MCF-7), for 48 hours (KPL-3C) or for 96 hours (ZR-75-1 and T47D).
MCF-7 cells or ZR-75-1 cells were seeded in 2×10^4/well, and KPL-3C cells were seeded in 1×10^4/well on a 48-well plate, and stood in a CO2 incubator for 24 hours. Then, for MCF-7 cells, the culture medium was exchanged with DMEM/F12 culture medium containing 10% FBS (Nichirei Biosciences, Tokyo, Japan), 1% antibiotic/antimycotic solution (Invitrogen), 0.1 mM NEAA48 (invitrogen), 1 mM sodium pyruvate and 10 μg/ml insulin (Sigma, St. Louis, Mo., USA) and not containing phenol red, and the cells were further pre-cultured for 24 hours. On the other hand, for ZR-75-1 cells and KPL-3C cells, the culture media were exchanged with RPMI culture media containing 10% FBS and 1% antibiotic/antimycotic solution and not containing phenol red, and the cells were further pre-cultured for 24 hours. The supernatant was removed, and then 200 μl of the ERAP1-peptide in each concentration or tamoxifen as a positive control was added, respectively and the mixture was reacted for 24 hours. […] Then, 100 μl from each well was moved to a 96-well plate, and the absorbance at 450 nm was measured with a microplate reader.

The subject of a further test is PHB2/REA phosphorylation. The test can be described thus: Phosphorylation of PHB2 bound to ERα, nuclear fraction. The settings on record: MCF-7, 5 μM peptide, 1 μM E2 24 hours. The protocol:
FIG. 22 is a diagram illustrating that phosphorylation of PHB2 serine regulates the transcriptional activity of ERα. […] MCF-7 cells and HCC1395 cells were treated with 5 μM ERAP1-peptide. Then, immediately, the cells were stimulated with 1 μM E2 for 24 hours. Then, the nuclear fraction of each cell was immunoprecipitated with anti-ERα antibody. Furthermore, with respect to the obtained sample, immunoblotting analysis was performed using the antibodies shown in the figure and the phosphorylation antibody. […] COS-7 cells temporarily transfected with PHB2 (or PHB2 mutation vectors, S39A and S39G), ERα, ERE-luciferase vector, and each plasmid of pRL-TK as an internal standard were stimulated with 1 μM E2 for 48 hours.
MCF-7 cells and HCC1395 cells were treated with 5 μM ERAP1-peptide. Then, immediately the cells were stimulated with 1 μM E2 for 24 hours. Then, the nuclear fraction was isolated from the cells of each treatment. The nuclear fraction was precleaned at 4° C. for 3 hours using Normal IgG and rec-Protein G Sepharose 4B (Zymed, San Francisco, Calif., USA), and centrifuged, and then the supernatant was incubated in the presence of an anti-ERα antibody at 4° C. for 6 hours. Then, the supernatant was added with rec-Protein G Sepharose 4B and incubated at 4° C. for 1 hour to precipitate a antigen-antibody complex. […]

For test [1], the system named is generation of ROS in MCF-7 cells. The test can be described thus: ROS production in the mitochondria, DHR123 flow cytometry. The protocol:
FIG. 41-2 is a diagram illustrating that ROS production in the mitochondria by E2 stimulation is induced through ERAP1. […] MCF-7 cells, and MCF-7 cells suppressed for expression of ERAP1, and HCC1395 cells were treated with 10 μM DHR123 for 15 minutes. The cells were washed, and then stimulated with 10 μM ERAP1-peptide and 10 nM E2 for 24 hours, and analyzed by flow cytometry. Cells treated with 1 mM H2O2 for 24 hours were used as a positive control. The data are representative examples of two independent experiments.

The test system of the next test is MCF-7 cells. The test can be described thus: E2-independent cell proliferation, MCF-7. The settings on record: 1, 3, 5 and 10 μM, 24 hours. The protocol: FIG. 15 is a diagram illustrating the effects of the ERAP1-peptide on E2-independent cell functions. […] MCF-7 cells were treated with the ERAP1-peptide in each concentration (1, 3, 5 and 10 μM) or 10 nM tamoxifen as a positive control for 24 hours. […] MCF-7 cells were stimulated with 10 μM ERAP1-peptide treatment only, 10 nM E2 treatment only, or 10 μM ERAP1-peptide treatment and immediately 10 nM E2 for 24 hours, and the cytoplasm fraction was isolated from each of the treated cells. Then, the cytoplasm fraction was immunoprecipitated with anti-ERα antibody. Furthermore, with respect to the obtained sample, Western blotting analysis was performed using the antibodies shown in the figure.
MCF-7 cells or ZR-75-1 cells were seeded in 2×10^4/well, and KPL-3C cells were seeded in 1×10^4/well on a 48-well plate, and stood in a CO2 incubator for 24 hours. Then, for MCF-7 cells, the culture medium was exchanged with DMEM/F12 culture medium containing 10% FBS (Nichirei Biosciences, Tokyo, Japan), 1% antibiotic/antimycotic solution (Invitrogen), 0.1 mM NEAA48 (invitrogen), 1 mM sodium pyruvate and 10 μg/ml insulin (Sigma, St. Louis, Mo., USA) and not containing phenol red, and the cells were further pre-cultured for 24 hours. […] Then, 100 μl from each well was moved to a 96-well plate, and the absorbance at 450 nm was measured with a microplate reader.

In the case of `CSCC[C@H](NC(=O)[C@H](CCC(N)=O)NC(=O)[C@H](CCCNC(=N)N)NC(=O)[C@H](CCCNC(=N)N)NC(=O)[C@H](CCCNC(=N)N)NC(=O)[C@H](CCCNC(=N)N)NC(=O)[C@H](CCCNC(=N)N)NC(=O)[C@H](CCCNC(=N)N)NC(=O)[C@H](CCCNC(=N)N)NC(=O)[C@H](CCCNC(=N)N)NC(=O)[C@H](CCCNC(=N)N)NC(=O)[C@H](CCCNC(=N)N)NC(=O)[C@@H](N)CCCNC(=N)N)C(=O)N[C@@H](CC(C)C)C(=O)N[C@@H](CO)C(=O)N[C@@H](CC(=O)O)C(=O)N[C@@H](CC(C)C)C(=O)N[C@H](C(=O)N[C@@H](CC(C)C)C(=O)N[C@@H](CCC(N)=O)C(=O)N[C@@H](CC(C)C)C(=O)N[C@@H](CCCNC(=N)N)C(=O)N[C@@H](CCC(N)=O)C(=O)N[C@@H](CCCNC(=N)N)C(=O)O)[C@@H](C)O` [ERAP1-peptide], the cell proliferation result with HCC1395 cells is “not recognized”. For the same compound, the “cell proliferation in the absence of E2” value with ZR75-1 cells is “significant cell proliferation suppression effect”; with MCF-7 cells, “dose-dependent cell proliferation suppression effect”. In addition, the “phosphorylation of PHB2/REA bound to ERα in the nucleus” value with PHB2/REA phosphorylation was “phosphorylations of the tyrosine and serine residues in the binding-recognized PHB2/REA were recognized”. In addition, the “generation of ROS” value in test [1] (MCF-7 in which expression of ERAP1 was suppressed) is “had no influence on the generation of ROS”; in test [1] (MCF-7 transfected with control siRNA, 10 μM, E2 24 hours), “generation of ROS was remarkably suppressed”.
